Results published in US5883293A, “Conformationally constrained backbone cyclized peptide analogs” (Peptor Ltd., priority 1994, dated 1999).
Numbered stars: 1 amine (or outer) side, 2 acyl side, 3 side chain; on linkers, the order of the positions; unused ones are H or OH. Bridge positions count the residues as written; N and C are the ends. Square brackets hold non-standard residues; d marks the D form. Peptide text beside a SMILES is read from it. NGly(3-aminopropyl) = O=C(CN(CCCN[*:3])[*:1])[*:2]; N(2-Aminoethyl)Gly = O=C(CN(CCN[*:3])[*:1])[*:2]; N(CH2CH2CO)Gly = O=C(CN(CCC(=O)[*:3])[*:1])[*:2]; N(CH2CH2COOH)Gly = O=C(O)CCNCC(=O)O; Gly(N(CH2)3NH2) = NCCCNCC(=O)O

Tests used:
[1] = tested on: Somatostatin Receptor (SSTR) Subtype SSTR-2B; test: Inhibition of radioactive iodinated somatostatin (SRIF-14) binding, CHO cells expressing SSTR-2B; settings: read-out: percent inhibition of SRIF-14 binding, SSTR-2B; for inhibition at 1 µM: Conc. 10^-6 M; for inhibition at 0.1 µM: Conc. 10^-7 M; for inhibition at 0.01 µM: Conc. 10^-8 M
Description: (§1) Receptor binding specificity of cyclic peptide analogs
(§2) The values presented are percent inhibition of radioactive iodinated somatostatin (SRIF-14) binding.

[2] = biological target: Somatostatin Receptor (SSTR) Subtype SSTR-5 (Homo sapiens, UniProt P35346); test: Inhibition of radioactive iodinated somatostatin (SRIF-14) binding, CHO cells expressing SSTR-5; settings: read-out: percent inhibition of SRIF-14 binding, SSTR-5; for inhibition at 1 µM: Conc. 10^-6 M; for inhibition at 0.1 µM: Conc. 10^-7 M; for inhibition at 0.01 µM: Conc. 10^-8 M
Description: as §1, §2

[3] = biological target: T1, bradykinin receptors (PC 12 cells) (Rattus norvegicus, UniProt P25023); test: Bradykinin antagonist assay: (3H)dopamine release from PC 12 cells; assay type: cell-based; settings: at 10^-6 M; (3H)DA release stimulated by bradykinin, PC12 cells
T1 construct: PC 12 cells that express bradykinin receptors; endogenous in cells; host or cells: PC12 cells
T1 sequence (P25023 1-396): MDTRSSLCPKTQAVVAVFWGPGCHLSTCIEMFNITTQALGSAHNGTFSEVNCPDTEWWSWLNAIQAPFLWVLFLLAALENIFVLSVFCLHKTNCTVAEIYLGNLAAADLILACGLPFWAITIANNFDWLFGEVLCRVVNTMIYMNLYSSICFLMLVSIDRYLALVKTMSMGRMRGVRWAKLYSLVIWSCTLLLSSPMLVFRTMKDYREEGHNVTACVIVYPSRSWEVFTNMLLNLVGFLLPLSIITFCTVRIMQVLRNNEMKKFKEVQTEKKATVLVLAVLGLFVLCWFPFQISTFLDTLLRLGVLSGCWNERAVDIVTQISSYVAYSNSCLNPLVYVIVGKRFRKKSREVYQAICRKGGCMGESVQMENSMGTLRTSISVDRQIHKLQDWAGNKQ
Method: BRADYKININ ANTAGONIST ASSAY (Displacement of (^3 H)dopamine release from PC 12 cells)
Novel backbone cyclized peptide analogs of the present invention were assayed in vitro for bradykinin antagonist activity by protection of (^3 H)dopamine release from PC 12 cells that express bradykinin receptors. PC12 cells were grown in Dulbecco Modified Eagle's medium with high glucose, supplemented with 10% horse serum, 5% fetal calf serum, 130 units/ml penicillin and 0.1 mg/ml streptomycin. For experiments, cells were removed from the medium using 1 mmole EDTA and replated on collagen coated-12-well plates and assayed 24 hr later. Release of (^3 H)dopamine was determined as follows: cells were incubated for 1.5 hr at 37° C. with 0.5 ml of growth medium and […] (^3 H)DA (41 Ci/mmole) and […] pargyline followed by extensive washing with medium (3×1 ml) and release buffer consisting of (mM): 130 NaCl; 5 KCl; 25 NaHCO3; 1 NaH2 PO4; 10 glucose and 1.8 CaCl2. In a typical experiment, cells were incubated with 0.5 ml buffer for 5 consecutive incubation periods of 3 min each at 37° C. Spontaneous (^3 H)DA release was measured by collecting the medium released by the cells successively for the first 3 min period. Antagonists were added to the cells 3 min prior to stimulation (at the second period), and stimulation of (^3 H)DA release by 100 nmole of bradykinin are monitored during the 3 period by 60 mmole KCl. The remaining of the (^3 H)DA was extracted from the cells by over night incubation with 0.5 ml 0.1N HCl. (^3 H)DA release during each 3 min period was expressed as a % of the total (^3 H)DA content of the cells. Net evoked release was calculated from (^3 H)DA release during stimulation period after subtracting basal (^3 H)DA release in the preceding baseline period if not indicated otherwise.

BK2 receptors = biological target: T2, BK2 receptors (Cavia porcellus, UniProt O70526); test: Bradykinin antagonist assay: guinea-pig ileum contraction; settings: at 10^-6 M, BK 2×10^-8 M, atropine 1 μM present
T2 construct: This tissue contains predominantly BK2 receptors; from tissue; host or cells: guinea-pig ileum, longitudinal muscle layer with adhering mesenteric plexus
T2 sequence (O70526 1-372): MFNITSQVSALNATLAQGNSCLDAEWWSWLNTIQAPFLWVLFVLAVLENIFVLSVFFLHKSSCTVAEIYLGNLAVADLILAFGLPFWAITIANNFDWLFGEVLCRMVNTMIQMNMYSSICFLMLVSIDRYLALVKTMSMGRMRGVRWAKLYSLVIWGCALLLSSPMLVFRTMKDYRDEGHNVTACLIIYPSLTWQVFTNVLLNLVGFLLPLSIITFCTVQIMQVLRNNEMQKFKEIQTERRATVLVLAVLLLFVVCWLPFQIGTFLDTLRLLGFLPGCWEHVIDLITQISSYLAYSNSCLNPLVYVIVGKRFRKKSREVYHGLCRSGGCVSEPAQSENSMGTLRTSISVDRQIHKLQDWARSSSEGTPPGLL
Method: The ileum of the guinea-pig was selected as the preparation for the bioassay. This tissue contains predominantly BK2 receptors. The preparation consists of the longitudinal muscle layer with the adhering mesenteric plexus. The isolated preparation was kept in Krebs solution and contractions were measured with an isometric force transducer. […] Atropine (1 μM) was always present.

[4] = In vitro biostability in human serum (HPLC determination of peptide degradation); assay type: in vitro ADME; settings: 37° C., FIG. 1
Method: FIG. 1 is a graph showing in vitro biostability of somatostatin and three analogs thereof in human serum. The graph depicts the percentage of undegraded molecules for each of the compounds initially and after various periods of time.
Resistance to biodegradation of SST analogs
The in vitro biostability of a SST cyclic peptide analog, PTR 3002, was measured in human serum, and was compared to the same sequence in a non-cyclic peptide analog (PTR 3001), to octreotide (Sandostatin), and to native somatostatin (SRIF). […] The assay was based on HPLC determination of peptide degradation as a function of time at 37° C.

[5] = Lack of toxicity of cyclized peptide analogs in rats; assay type: in vivo
Description: Lack of toxicity of cyclized peptide analogs
These two doses are several orders of magnitude higher than those needed to elicit the desired endocrine effect. The peptides dissolved in saline produced no untoward side effects on the central nervous system, cardiovascular system, body temperature, nor on the periphery of the animals.

Chain of Somatostatin Receptor (SSTR) Subtype SSTR-2B (P30874 1-356 isoform P30874-2): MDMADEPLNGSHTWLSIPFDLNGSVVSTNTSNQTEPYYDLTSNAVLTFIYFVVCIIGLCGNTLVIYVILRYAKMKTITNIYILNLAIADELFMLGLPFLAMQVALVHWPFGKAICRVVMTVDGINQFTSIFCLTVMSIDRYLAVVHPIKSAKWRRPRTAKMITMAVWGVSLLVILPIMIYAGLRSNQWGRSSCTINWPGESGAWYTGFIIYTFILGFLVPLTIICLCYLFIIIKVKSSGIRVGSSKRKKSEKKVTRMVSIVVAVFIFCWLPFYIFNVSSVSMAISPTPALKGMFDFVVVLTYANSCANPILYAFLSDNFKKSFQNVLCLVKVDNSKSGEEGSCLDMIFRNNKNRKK
Chain of Somatostatin Receptor (SSTR) Subtype SSTR-5 (P35346 whole entry): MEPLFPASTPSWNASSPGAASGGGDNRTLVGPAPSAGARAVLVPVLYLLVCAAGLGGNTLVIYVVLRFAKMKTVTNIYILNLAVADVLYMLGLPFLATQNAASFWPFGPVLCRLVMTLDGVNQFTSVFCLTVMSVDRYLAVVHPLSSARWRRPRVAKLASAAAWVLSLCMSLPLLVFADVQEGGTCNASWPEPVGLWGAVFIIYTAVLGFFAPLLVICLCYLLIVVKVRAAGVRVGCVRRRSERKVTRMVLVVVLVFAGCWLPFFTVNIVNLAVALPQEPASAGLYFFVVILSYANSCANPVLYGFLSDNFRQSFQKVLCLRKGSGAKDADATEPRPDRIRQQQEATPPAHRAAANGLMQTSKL

In the case of `C[C@@H](O)[C@H](NC(=O)CN(CCCN)C(=O)[C@@H](NC(=O)[C@H](CCCCN)NC(=O)[C@@H](Cc1c[nH]c2ccccc12)NC(=O)[C@H](Cc1ccccc1)NC(=O)CN(CCC(=O)O)C(=O)[C@H](N)Cc1ccccc1)[C@@H](C)O)C(N)=O` [PTR 3008] (H-[dF][N(CH2CH2COOH)Gly]F[dW]KT[Gly(N(CH2)3NH2)]T-NH2), the inhibition at 1 µM [1] was 0%, the inhibition at 0.1 µM [1] was 0% and the inhibition at 0.01 µM [1] was 0%. The inhibition at 1 µM [2] was 15%, the inhibition at 0.1 µM [2] was 6% and the inhibition at 0.01 µM [2] was 0%.

For “Ada-D-Arg-Arg-N^α (6-acetamidohexylene)Gly-Hyp-Phe-D-Asp(NH-Me)-D-Phe-Phe-Arg--OH [Example 2]”, the “inhibition of BK activity” value [3] was 0% and the “inhibition of BK activity” value (BK2 receptors) was 0%.

In the case of “Ada-(D)Arg-Arg-cyclo(N^α (1-(6-aminohexylene)Gly-Hyp-Phe-D-Asp)-D-Phe-Phe-Arg--OH [Example 1]”, the “inhibition of BK activity” value [3] was 30%.

With `C[C@@H](O)[C@H](NC(=O)CN1CCNC(=O)CCN(C(=O)[C@H](N)Cc2ccccc2)CC(=O)N[C@@H](Cc2ccccc2)C(=O)N[C@H](Cc2c[nH]c3ccccc23)C(=O)N[C@@H](CCCCN)C(=O)N[C@@H]([C@@H](C)O)C1=O)C(N)=O` [PTR 3002] (H-[dF][N(CH2CH2CO)Gly]F[dW]KT[N(2-Aminoethyl)Gly]T-NH2; lactam 2-7) the “in vitro biostability in human serum” value [4] was “as stable as octreotide, is more stable than the corresponding non-cyclic structure, and is much more stable than SRIF”.

In the case of “H-D-Arg-Arg-cyclo(N^α (4-propanoyl)Gly-Hyp-Phe-N^α (3-amido-propyl)-S-Phe)-Ser-D-Phe-Phe-Arg--OH [Example 4]”, the “inhibition of BK activity” value [3] was 17%.

For `C[C@@H](O)[C@H](NC(=O)CN1CCCNC(=O)CCN(C(=O)[C@H](N)Cc2ccccc2)CC(=O)N[C@@H](Cc2ccccc2)C(=O)N[C@H](Cc2c[nH]c3ccccc23)C(=O)N[C@@H](CCCCN)C(=O)N[C@@H]([C@@H](C)O)C1=O)C(N)=O` [PTR 3007] (H-[dF][N(CH2CH2CO)Gly]F[dW]KT[NGly(3-aminopropyl)]T-NH2; lactam 2-7), the “respiratory disturbances, stereotyped behavior, muscle tone” value ([5]; rats observed for 4 hours post administration) was “no respiratory disturbances” and the “tolerability after single intraperitoneal application” value ([5]; rats, dose of 1.5 mg/kg) was “well tolerated”.

In the case of `C[C@@H](O)[C@H](NC(=O)CN(CCCN)C(=O)[C@@H](NC(=O)[C@H](CCCCN)NC(=O)[C@@H](Cc1c[nH]c2ccccc12)NC(=O)[C@H](Cc1ccccc1)NC(=O)CN(CC(=O)O)C(=O)[C@H](N)Cc1ccccc1)[C@@H](C)O)C(N)=O` [PTR 3005], the inhibition at 1 µM [1] was 0%, the inhibition at 0.1 µM [1] was 0% and the inhibition at 0.01 µM [1] was 0%. It also gave an inhibition at 1 µM [2] of 9%, an inhibition at 0.1 µM [2] of 0% and an inhibition at 0.01 µM [2] of 0%.
